Measured values taken from ChEMBL document CHEMBL1201862, “PubChem BioAssay data set” (2004).
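Where inhibition never reached the appropriate level, the endpoint shown equals the highest concentration tested. Otherwise, values were interpolated linearly from a five-concentration, 48-hour dose response in 96-well plates. Abbreviation: GI50, concentration required for 50% inhibition of growth.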 Activity calls are given as the source filed them. No stated cut-off is given here; in the data, active = GI50 up to about 1.1 µM and inactive = higher.

Tests used:
Experiment in all cases: NCI-60 cell line screen, 48 h
SK-MEL-28 = system: SK-MEL-28
Malme-3M = system: Malme-3M
EKVX = system: EKVX
BT-549 = system: BT-549
SW-620 = system: SW-620
A549 = system: A549
MDA-MB-231 = system: MDA-MB-231
HT-29 = system: HT-29
OVCAR-5 = system: OVCAR-5
MDA-MB-435 = system: MDA-MB-435
Hs-578T = system: Hs-578T
TK-10 = system: TK-10
HOP-92 = system: HOP-92
M14 = system: M14
A498 = system: A498
CAKI-1 = system: CAKI-1
SNB-75 = system: SNB-75
CCRF-CEM = system: CCRF-CEM
SF-539 = system: SF-539
COLO 205 = system: COLO 205

Compound	GI50 (SK-MEL-28)	GI50 (Malme-3M)	GI50 (EKVX)	GI50 (BT-549)	GI50 (SW-620)	GI50 (A549)	GI50 (MDA-MB-231)	GI50 (HT-29)	GI50 (OVCAR-5)	GI50 (MDA-MB-435)	GI50 (Hs-578T)	GI50 (TK-10)	GI50 (HOP-92)	GI50 (M14)	GI50 (A498)	GI50 (CAKI-1)	GI50 (SNB-75)	GI50 (CCRF-CEM)	GI50 (SF-539)	GI50 (COLO 205)
O=[As](O)(O)c1ccc(/N=N/c2ccc([As](=O)(O)O)cc2)cc1	> 100 µM (inactive)	> 100 µM (inactive)	> 100 µM (inactive)	> 100 µM (inactive)	> 100 µM (inactive)	> 100 µM (inactive)	> 100 µM (inactive)	> 100 µM (inactive)	> 100 µM (inactive)	> 100 µM (inactive)	> 100 µM (inactive)	> 100 µM (inactive)	> 100 µM (inactive)	> 100 µM (inactive)	> 100 µM (inactive)	> 100 µM (inactive)	–	–	–	–
N=C1N(S(=O)(=O)c2ccccc2)[C@@H](Cc2ccccc2)[C@H](c2ccccc2)C1(c1ccccc1)c1ccccc1	> 100 µM (inactive)	> 100 µM (inactive)	37.2 µM (inactive)	> 100 µM (inactive)	> 100 µM (inactive)	> 100 µM (inactive)	> 100 µM (inactive)	> 100 µM (inactive)	> 100 µM (inactive)	> 100 µM (inactive)	> 100 µM (inactive)	> 100 µM (inactive)	–	> 100 µM (inactive)	> 100 µM (inactive)	> 100 µM (inactive)	> 100 µM (inactive)	27.2 µM (inactive)	> 100 µM (inactive)	80.7 µM (inactive)
O=C1N/N=C\Nc2ccc(cc2)S(=O)(=O)c2ccc(cc2)/N=C\NNC1=O	> 100 µM (inactive)	–	> 100 µM (inactive)	72.8 µM (inactive)	> 100 µM (inactive)	> 100 µM (inactive)	> 100 µM (inactive)	> 100 µM (inactive)	> 100 µM (inactive)	> 100 µM (inactive)	> 100 µM (inactive)	> 100 µM (inactive)	> 100 µM (inactive)	> 100 µM (inactive)	20 µM (inactive)	> 100 µM (inactive)	–	–	> 100 µM (inactive)	> 100 µM (inactive)
O=C(n1c(=O)n(-c2ccc(Cl)cc2)c(=O)n1C(=O)C(Cl)(Cl)Cl)C(Cl)(Cl)Cl	> 100 µM (inactive)	> 100 µM (inactive)	> 100 µM (inactive)	66.5 µM (inactive)	> 100 µM (inactive)	> 100 µM (inactive)	7.67 µM (inactive)	> 100 µM (inactive)	> 10 µM (inactive)	31.6 µM (inactive)	> 100 µM (inactive)	> 100 µM (inactive)	> 100 µM (inactive)	–	> 100 µM (inactive)	> 100 µM (inactive)	–	> 100 µM (inactive)	> 100 µM (inactive)	> 100 µM (inactive)
O=C(Sc1n[nH]c(=O)[nH]c1=O)c1cccc2nc3ccccc3nc12	30.7 µM (inactive)	5.64 µM (inactive)	> 100 µM (inactive)	8.36 µM (inactive)	41.2 µM (inactive)	4.05 µM (inactive)	> 100 µM (inactive)	13.5 µM (inactive)	> 100 µM (inactive)	13.7 µM (inactive)	20 µM (inactive)	> 100 µM (inactive)	> 100 µM (inactive)	23.6 µM (inactive)	> 100 µM (inactive)	78.3 µM (inactive)	–	> 100 µM (inactive)	35.6 µM (inactive)	2.44 µM (inactive)
C=C1C(=O)O[C@@H]2O[C@@]3(C)CC[C@H]4[C@H](C)CC[C@@H]1[C@@]24O3 [DEOXYARTEMISITENE]	40.6 µM (inactive)	14.2 µM (inactive)	13.3 µM (inactive)	7.46 µM (inactive)	15.5 µM (inactive)	34.8 µM (inactive)	25.9 µM (inactive)	17.8 µM (inactive)	38.5 µM (inactive)	29.2 µM (inactive)	39 µM (inactive)	15.9 µM (inactive)	3.49 µM (inactive)	24.9 µM (inactive)	34.6 µM (inactive)	15.7 µM (inactive)	–	3.47 µM (inactive)	11 µM (inactive)	11.9 µM (inactive)
CC(C)(C)OCC1NC(=O)[C@@H]2Cc3c([nH]c4ccccc34)C(C3CCCCC3)N2C1=O (some centres undefined)	22.6 µM (inactive)	21.1 µM (inactive)	27.2 µM (inactive)	20.9 µM (inactive)	25.3 µM (inactive)	33.7 µM (inactive)	17.4 µM (inactive)	18 µM (inactive)	24.2 µM (inactive)	16 µM (inactive)	20.8 µM (inactive)	24.3 µM (inactive)	22.1 µM (inactive)	19.3 µM (inactive)	32.2 µM (inactive)	17.7 µM (inactive)	–	–	–	20.7 µM (inactive)
OCCOCn1nncc1Cn1ncc2c(O)ncnc21	> 100 µM (inactive)	> 100 µM (inactive)	> 100 µM (inactive)	> 100 µM (inactive)	31.8 µM (inactive)	97.9 µM (inactive)	> 100 µM (inactive)	40 µM (inactive)	> 100 µM (inactive)	26.9 µM (inactive)	> 100 µM (inactive)	> 100 µM (inactive)	> 100 µM (inactive)	> 100 µM (inactive)	> 100 µM (inactive)	> 100 µM (inactive)	> 100 µM (inactive)	–	> 100 µM (inactive)	97.7 µM (inactive)
COc1ccc(C2NC(=S)Nc3c2c(=O)oc2c3ccc3ccccc32)cc1 (centres undefined)	52.5 µM (inactive)	> 100 µM (inactive)	27.4 µM (inactive)	45.7 µM (inactive)	> 100 µM (inactive)	52.1 µM (inactive)	57.8 µM (inactive)	> 100 µM (inactive)	> 100 µM (inactive)	86.3 µM (inactive)	75.7 µM (inactive)	99.3 µM (inactive)	41.8 µM (inactive)	45.6 µM (inactive)	38.9 µM (inactive)	58.3 µM (inactive)	33.7 µM (inactive)	46 µM (inactive)	–	> 100 µM (inactive)
CCc1n[nH]c(=O)n1/N=C/c1ccccc1Cl	> 100 µM (inactive)	> 100 µM (inactive)	1.42 µM (inactive)	> 100 µM (inactive)	> 100 µM (inactive)	> 100 µM (inactive)	> 100 µM (inactive)	> 100 µM (inactive)	> 100 µM (inactive)	85.7 µM (inactive)	2.69 µM (inactive)	> 100 µM (inactive)	74.8 µM (inactive)	> 100 µM (inactive)	> 100 µM (inactive)	> 100 µM (inactive)	–	> 100 µM (inactive)	> 100 µM (inactive)	> 100 µM (inactive)
CC1(C)CN(CC(=O)O)CC(Cc2ccc(OCC(=O)O)cc2)N(CC(=O)O)CC(C)(C)SS1 (centres undefined)	> 100 µM (inactive)	> 100 µM (inactive)	> 100 µM (inactive)	> 100 µM (inactive)	> 100 µM (inactive)	> 100 µM (inactive)	> 100 µM (inactive)	> 100 µM (inactive)	> 100 µM (inactive)	> 100 µM (inactive)	> 100 µM (inactive)	> 100 µM (inactive)	> 100 µM (inactive)	> 100 µM (inactive)	> 100 µM (inactive)	> 100 µM (inactive)	> 100 µM (inactive)	–	> 100 µM (inactive)	> 100 µM (inactive)
O=C1NC(=O)C(C(CC(=O)c2ccc([N+](=O)[O-])cc2)c2ccccc2)C(=O)N1 (centres undefined)	> 100 µM (inactive)	0.0334 µM (active)	–	> 100 µM (inactive)	29.2 µM (inactive)	97.3 µM (inactive)	> 100 µM (inactive)	52.2 µM (inactive)	> 100 µM (inactive)	49.8 µM (inactive)	10.9 µM (inactive)	0.0471 µM (active)	> 100 µM (inactive)	> 100 µM (inactive)	> 100 µM (inactive)	–	> 100 µM (inactive)	35.2 µM (inactive)	> 100 µM (inactive)	> 100 µM (inactive)
C/C(=N\NC(=S)NCCCCNC(=S)N/N=C(\C)c1ccccn1)c1ccccc1	2.05 µM (inactive)	0.845 µM (active)	2.23 µM (inactive)	0.897 µM (active)	–	1.66 µM (inactive)	5.09 µM (inactive)	0.531 µM (active)	1.98 µM (inactive)	> 100 µM (inactive)	> 23.6 µM (inactive)	0.839 µM (active)	1.55 µM (inactive)	–	3.05 µM (inactive)	–	0.993 µM (active)	0.391 µM (active)	1.11 µM (active)	0.832 µM (active)
C=C1[C@H](OCC(C)C)[C@@H](OCC(C)C)[C@@H](O)C(C)(C)/C=C/[C@H](C)C(=O)[C@@]2(O)C[C@H](C)[C@H](O)[C@@H]2[C@H]1OCC(C)C	–	–	–	> 7.5 µM (inactive)	7.38 µM (inactive)	–	3.25 µM (inactive)	–	> 7.5 µM (inactive)	3.01 µM (inactive)	2.77 µM (inactive)	5.78 µM (inactive)	> 7.5 µM (inactive)	2.14 µM (inactive)	3.23 µM (inactive)	2.57 µM (inactive)	3.02 µM (inactive)	–	2.83 µM (inactive)	2.13 µM (inactive)
Cc1c(C)c(C)c(-n2c(=O)n(C)c(=O)n2-n2c(=O)n(C)c(=O)n2-c2c(C)c(C)c(C)c(C)c2C)c(C)c1C	> 100 µM (inactive)	> 100 µM (inactive)	> 100 µM (inactive)	> 100 µM (inactive)	> 100 µM (inactive)	> 100 µM (inactive)	> 100 µM (inactive)	> 100 µM (inactive)	> 100 µM (inactive)	> 100 µM (inactive)	0.0533 µM (active)	> 100 µM (inactive)	> 100 µM (inactive)	> 100 µM (inactive)	> 100 µM (inactive)	> 100 µM (inactive)	> 100 µM (inactive)	–	> 100 µM (inactive)	> 100 µM (inactive)
